Literature values, collected in PMC4364341, “NBD delivery improves the disease phenotype of the golden retriever model of Duchenne muscular dystrophy” (Skeletal Muscle, 2014).

Test system: GRMD dogs
Conditions: previous GRMD prednisone trial; cited from earlier work
Description: This functional benefit obtained by NBD in GRMD dogs was consistent with that obtained in the mdx murine model of DMD [13].

SMILES: C[C@]12C=CC(=O)C=C1CC[C@@H]1[C@@H]2C(=O)C[C@@]2(C)[C@H]1CC[C@]2(O)C(=O)CO [prednisone]
- Extension force in treated GRMD dogs: increased extension force
